Source: patent US20050230662A1, “Diaminostilbene derivatives” (priority 1999, published 2005)

Assay: evaluation of solubility in water (dissolving at 40° C., then deposition on ice bath at 0° C.)
Assay type: physicochemical
Conditions: for Solubility of 0° C.: time to deposition, aqueous solution (20 g/100 mL) on ice bath under stirring; for Solubility at 40° C.: time to dissolve 20 g sample in 100 mL water on warm bath at 40° C., stirred
Method: Compounds I-1, I-2, I-4, I-11, I-12, and I-22 obtained above, and the Comparison Compounds a, b, c and d were subjected to evaluation of solubility in water.
Water (100 mL) was added to 20 g of each sample, and the mixture was placed on a warm bath (at 40° C.), and stirred using a magnetic stirrer, so that the added sample was dissolved in the warm water. Then, the obtained aqueous solution was placed on an ice bath under stirring.

Structure (SMILES)	Solubility of 0° C.	Solubility at 40° C.
O=S(=O)([O-])CCNc1nc(NCCOCCO)nc(Nc2ccc(C=Cc3ccc(Nc4nc(NCCOCCO)nc(NCCS(=O)(=O)[O-])n4)cc3S(=O)(=O)[O-])c(S(=O)(=O)[O-])c2)n1.[Na+].[Na+].[Na+].[Na+] [Comp. I-11]	No deposition within 180 sec.	dissolved within 120 sec.
CC(C)(CO)CNc1nc(NCCS(=O)(=O)[O-])nc(Nc2ccc(C=Cc3ccc(Nc4nc(NCCS(=O)(=O)[O-])nc(NCC(C)(C)CO)n4)cc3S(=O)(=O)[O-])c(S(=O)(=O)[O-])c2)n1.[Na+].[Na+].[Na+].[Na+] [Comp. b, reference compound]	–	some insoluble remained at 300 sec.

Now from value to molecule:

Solubility of 0° C.	Solubility at 40° C.	Structure (SMILES)
No deposition within 180 sec.	dissolved within 120 sec.	O=S(=O)([O-])CCNc1nc(NCC(O)CO)nc(Nc2ccc(C=Cc3ccc(Nc4nc(NCCS(=O)(=O)[O-])nc(NCC(O)CO)n4)cc3S(=O)(=O)[O-])c(S(=O)(=O)[O-])c2)n1.[Na+].[Na+].[Na+].[Na+] (stereo not shown) [Comp. I-1]
No deposition within 180 sec.	–	O=S(=O)([O-])CCNc1nc(NCCC(O)CO)nc(Nc2ccc(C=Cc3ccc(Nc4nc(NCCC(O)CO)nc(NCCS(=O)(=O)[O-])n4)cc3S(=O)(=O)[O-])c(S(=O)(=O)[O-])c2)n1.[Na+].[Na+].[Na+].[Na+] (stereo not shown) [Comp. I-4]
–	some insoluble remained at 300 sec.	O=S(=O)([O-])CCNc1nc(NCCCO)nc(Nc2ccc(C=Cc3ccc(Nc4nc(NCCCO)nc(NCCS(=O)(=O)[O-])n4)cc3S(=O)(=O)[O-])c(S(=O)(=O)[O-])c2)n1.[Na+].[Na+].[Na+].[Na+] [Comp. a, reference compound]
